# Measurements reported in PubChem BioAssay AID1259411 (Chemical Carcinogenesis Research Information System (CCRIS), 2018).
# Active and inactive are the calls of the source. The rule behind the calls is not given here.
# System: rodent carcinogenicity bioassays, tumor incidence
# Test: CCRIS carcinogenicity studies
# In short: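 NCI-built, expert-reviewed records of carcinogenicity and related test outcomes (mutagenicity, tumor promotion/inhibition) compiled from published and report sources, historical span 1985-2011, not updated.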
compound,measurement,setting,value
C[C@H](CCC(=O)O)[C@H]1CC[C@H]2[C@@H]3CC[C@@H]4C[C@H](O)CC[C@]4(C)[C@H]3CC[C@]12C,carcinogen call,"Species: MOUSE, Strain/Sex: B6C3F1/FEMALE, Route: GAVAGE, Dose: 0, 125, 250 MG/KG IN CORN OIL, Dose: 0, 125, 250 MG/KG IN CORN OIL",inactive; negative
same,carcinogen call,"Species: MOUSE, Strain/Sex: B6C3F1/MALE, Route: GAVAGE, Dose: 0, 125, 250 MG/KG IN CORN OIL, Dose: 0, 125, 250 MG/KG IN CORN OIL",inactive; negative
same,carcinogen call,"Species: RAT, Strain/Sex: F344/FEMALE, Route: GAVAGE, Dose: 0, 250, 500 MG/KG IN CORN OIL, Dose: 0, 250, 500 MG/KG IN CORN OIL",inactive; negative
same,carcinogen call,"Species: RAT, Strain/Sex: F344/MALE, Route: GAVAGE, Dose: 0, 250, 500 MG/KG IN CORN OIL, Dose: 0, 250, 500 MG/KG IN CORN OIL",inactive; negative
O=NN1CCCC[C@H]1c1cccnc1,carcinogen call,"Species: MOUSE, Strain/Sex: STRAIN-A/FEMALE, Route: INTRAPERITONEAL, Dose: 0, 100 UMOL TOTAL DOSE ADMINISTERED IN SUBDOSES 3/WK FOR 7 WK (STUDY DURATION: 37 WK), Tumor Site: Type of Lesion: LUNG: TUMOR",active; positive
C1CCC2CCCCC2C1 (stereo not given),carcinogen call,"Species: MOUSE, Strain/Sex: B6C3F1/FEMALE (50/GROUP), Route: INHALATION, Dose: 0, 25, 100, 400 PPM 6 HR/D, 5 D/WK FOR 105 WKS (STUDY DURATION: 105 WKS), Dose: 0, 25, 100, 400 PPM 6 HR/D, 5 D/WK FOR 105 WKS (STUDY DURATION: 105 WKS), Tumor Site: Type of Lesion: LIVER: HEPATOCELLULAR ADENOMA OR CARCINOMA (22%; 54%; 28%; 42%)",equivocal; ntp says marginal increase in uterine tumors but p values did not rea
same,carcinogen call,"Species: MOUSE, Strain/Sex: B6C3F1/MALE (50/GROUP), Route: INHALATION, Dose: 0, 25, 100, 400 PPM 6 HR/D, 5 D/WK FOR 105 WKS (STUDY DURATION: 105 WKS), Dose: 0, 25, 100, 400 PPM 6 HR/D, 5 D/WK FOR 105 WKS (STUDY DURATION: 105 WKS)",inactive; negative
same,carcinogen call,"Species: RAT, Strain/Sex: F344/FEMALE, Route: INHALATION, Dose: 0, 25, 100, 400 PPM IN AIR, 6 H PLUS 12 MIN/D, 5 D/WK FOR 2 YR (STUDY DURATION: 2 YR), Dose: 0, 25, 100, 400 PPM IN AIR, 6 H PLUS 12 MIN/D, 5 D/WK FOR 2 YR (STUDY DURATION: 2 YR)",inactive; negative
same,carcinogen call,"Species: RAT, Strain/Sex: F344/MALE, Route: INHALATION, Dose: 0, 25, 50, 100, 400 PPM IN AIR , 6 H PLUS 12 MIN/D, 5 D/WK FOR 2 YR (STUDY DURATION: 2 YR), Dose: 0, 25, 50, 100, 400 PPM IN AIR , 6 H PLUS 12 MIN/D, 5 D/WK FOR 2 YR (STUDY DURATION: 2 YR), Tumor Site: Type of Lesion: KIDNEY: RENAL TUBULE ADENOMA, RENAL TUBULE ADENOMA OR CARCINOMA",active; positive
same,carcinogen call,"Species: RAT, Strain/Sex: F344/N/FEMALE (50/GROUP), Route: INHALATION, Dose: 0, 25, 100, 400 PPM 6 HR/D, 5 D/WK FOR 105 WKS (STUDY DURATION: 105 WKS), Dose: 0, 25, 100, 400 PPM 6 HR/D, 5 D/WK FOR 105 WKS (STUDY DURATION: 105 WKS)",inactive; negative
same,carcinogen call,"Species: RAT, Strain/Sex: F344/N/MALE (20/GROUP), Route: INHALATION, Dose: 400 PPM 6 HR/D, 5 D/WK FOR 105 WKS (STUDY DURATION: 105 WKS), Tumor Site: Type of Lesion: KIDNEY: RENAL TUBULE ADENOMA OR CARCINOMA (30%), ADRENAL: PHEOCHROMOCYTOMA (40%)",active; positive
same,carcinogen call,"Species: RAT, Strain/Sex: F344/N/MALE (50/GROUP), Route: INHALATION, Dose: 0, 25, 50, 100 PPM 6 HR/D, 5 D/WK FOR 105 WKS (STUDY DURATION: 105 WKS), Dose: 0, 25, 50, 100 PPM 6 HR/D, 5 D/WK FOR 105 WKS (STUDY DURATION: 105 WKS), Tumor Site: Type of Lesion: KIDNEY: RENAL TUBULE ADENOMA OR CARCINOMA (2%; 6%; 14%; 24%), ADRENAL: BENIGN OR MALIGNANT PHEOCHROMOCYTOMA (16%, 18%, 2, Tumor Site: Type of Lesion: KIDNEY: RENAL TUBULE ADENOMA OR CARCINOMA (2%; 6%; 14%; 24%), ADRENAL: BENIGN OR MALIGNANT PHEOCHROMOCYTOMA (16%, 18%, 2","active; positive; alpha-2u-globulin, incidences of renal tubule regeneration and granula"
c1ccc(-c2ccccc2)cc1,carcinogen call,"Species: MOUSE, Strain/Sex: CRJ:BDF1/FEMALE, Route: ORAL, Dose: 667, 2000, 6000 PPM IN DIET FOR 2 YRS (STUDY DURATION: 2 YRS), Dose: 667, 2000, 6000 PPM IN DIET FOR 2 YRS (STUDY DURATION: 2 YRS), Tumor Site: Type of Lesion: LIVER: HEPATOCELLULAR ADENOMA AND CARCINOMA",active; positive
same,carcinogen call,"Species: MOUSE, Strain/Sex: CRJ:BDF1/MALE, Route: ORAL, Dose: 0, 667, 2000, 6000 PPM IN DIET FOR 2 YRS (STUDY DURATION: 2 YRS), Dose: 0, 667, 2000, 6000 PPM IN DIET FOR 2 YRS (STUDY DURATION: 2 YRS)",inactive; negative
same,carcinogen call,"Species: RAT, Strain/Sex: F344/FEMALE, Route: ORAL, Dose: 0, 500, 1500, 4500 PPM IN DIET FOR 105 WK (STUDY DURATION: 105 WK ), Dose: 0, 500, 1500, 4500 PPM IN DIET FOR 105 WK (STUDY DURATION: 105 WK )",inactive; negative
same,carcinogen call,"Species: RAT, Strain/Sex: F344/MALE, Route: ORAL, Dose: 0, 500, 1500, 4500 PPM IN DIET FOR 105 WK (STUDY DURATION: 105 WK ), Dose: 0, 500, 1500, 4500 PPM IN DIET FOR 105 WK (STUDY DURATION: 105 WK ), Tumor Site: Type of Lesion: URINARY BLADDER: TRANSITIONAL CELL PAPILLOMA, TRANSITIONAL CELL CARCINOMA",active; positive
CCCCCCCCCc1ccc(OCCO)cc1,carcinogen call,"Species: MOUSE, Strain/Sex: B6C3F1/FEMALE, Route: ORAL, Dose: 0, 500, 1500, 4500 PPM IN DIET FOR 104 WK (STUDY DURATION: 104 WK), Dose: 0, 500, 1500, 4500 PPM IN DIET FOR 104 WK (STUDY DURATION: 104 WK)",inactive; negative
same,carcinogen call,"Species: RAT, Strain/Sex: F344/FEMALE, Route: ORAL, Dose: 0, 1000, 3000, 9000 PPM IN DIET FOR 104 WK (STUDY DURATION: 104 WK), Dose: 0, 1000, 3000, 9000 PPM IN DIET FOR 104 WK (STUDY DURATION: 104 WK)",inactive; negative
CCC(Br)(CC)C(=O)NC(N)=O,carcinogen call,"Species: MOUSE, Strain/Sex: B6C3F1/FEMALE, Route: ORAL, Dose: 0, 1250, 2500 PPM IN DIET, Dose: 0, 1250, 2500 PPM IN DIET",inactive; negative
same,carcinogen call,"Species: MOUSE, Strain/Sex: B6C3F1/MALE, Route: ORAL, Dose: 0, 1250, 2500 PPM IN DIET, Dose: 0, 1250, 2500 PPM IN DIET",inactive; negative
same,carcinogen call,"Species: RAT, Strain/Sex: F344/FEMALE, Route: ORAL, Dose: 0, 1250, 2500 PPM IN DIET, Dose: 0, 1250, 2500 PPM IN DIET",inactive; negative
same,carcinogen call,"Species: RAT, Strain/Sex: F344/MALE, Route: ORAL, Dose: 0, 1250, 2500 PPM IN DIET, Dose: 0, 1250, 2500 PPM IN DIET",inactive; negative
CCC(=O)N(O)c1ccc(-c2ccccc2)cc1,carcinogen call,"Species: RAT, Strain/Sex: STRAIN-CD/FEMALE, Route: INTRAPERITONEAL, Dose: 0, 100 UMOL/KG BW 2/WK FOR 6 WK (STUDY DURATION: 62 WK)",inactive; negative
C[C@]12C=CC(=O)C=C1CC[C@@H]1[C@@H]2C(=O)C[C@@]2(C)[C@H]1CC[C@]2(O)C(=O)CO,carcinogen call,"Species: MOUSE, Strain/Sex: ICR/FEMALE, Route: ORAL, Dose: 0, 0.25, 0.5, 1, 5 MG/KG/D FOR 18 MO (STUDY DURATION: 18 MO), Dose: 0, 0.25, 0.5, 1, 5 MG/KG/D FOR 18 MO (STUDY DURATION: 18 MO)",inactive; negative
same,carcinogen call,"Species: MOUSE, Strain/Sex: ICR/MALE, Route: ORAL, Dose: 0, 0.25, 0.5, 1, 5 MG/KG/D FOR 18 MO (STUDY DURATION: 18 MO), Dose: 0, 0.25, 0.5, 1, 5 MG/KG/D FOR 18 MO (STUDY DURATION: 18 MO)",inactive; negative
